# Test results as given in patent publication US9771378B2 (Denali Therapeutics, Inc., priority 2014, dated 2017).
# Tested on: Aβ42 (human neuroglioma H4 cells expressing human wild type APP751)
# Assay: In vitro cell screening assay with sandwich ELISA quantification of Aβ42 peptide
# Format: cell-based
# Conditions: H4 cells stably expressing human wild type APP751; Pro293 chemically defined medium; compounds 0.003-10 μM; incubated overnight (16-18 h); supernatant Aβ42 by sandwich ELISA; normalized to DMSO and DAPT; read-out: Aβ42 H4 Prot Fre IC50
# In short: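 H4 neuroglioma cells stably expressing human wild-type APP751 were treated in Pro293 medium with compounds (0.003-10 μM, 0.33% DMSO) for 16-18 h at 37° C. Secreted Aβ42 measured by sandwich ELISA (C-terminal capture, 4G8-HRP detection, TMB, 450 nm). IC50 by variable-slope sigmoidal regression on percent of DMSO control.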
row,Structure (SMILES),IC50
1,"Cc1cc(-c2ccc(Nc3ncc4c(n3)N(C)C(c3cc(F)cc(F)c3)CO4)cc2)ccn1 (single isomer, unassigned; (-)) [Example 28A]",1960 nM
2,"Cc1cc(-c2ccc(Nc3ncc4c(n3)N(C)C(c3ccccc3C)CO4)cc2)ccn1 (single isomer, unassigned; (-)) [Example 29A]",1100 nM
3,"COc1cc(Nc2ncc3c(n2)N(C)C(c2cc(F)cc(F)c2)CO3)ccc1-n1cnc(C)c1 (single isomer, unassigned; (-)) [Example 30A]",177 nM
4,"COc1cc(Nc2ncc3c(n2)N(C)C(c2ccccc2C)CO3)ccc1-n1cnc(C)c1 (single isomer, unassigned; (-)) [Example 31A]",138 nM
5,"Cc1cc(-c2ccc(Nc3ncc4c(n3)N(C)C(c3ccccc3C)CO4)cc2F)ccn1 (single isomer, unassigned; (-)) [Example 32A]",888 nM
6,"Cc1cn(-c2ccc(Nc3ncc4c(n3)N(C)C(c3cc(F)cc(F)c3)CO4)cc2F)cn1 (single isomer, unassigned; (-)) [Example 33B]",389 nM
7,"Cc1cn(-c2ccc(Nc3ncc4c(n3)N(C)C(c3ccccc3C)CO4)cc2F)cn1 (single isomer, unassigned; (-)) [Example 34B]",460 nM
8,"COc1cc(Nc2ncc3c(n2)N(C)C(c2ccccc2C)CO3)ccc1-c1ccnc(C)c1 (single isomer, unassigned; (-)) [Example 35A]",355 nM
9,"Cc1cc(-c2ccc(Nc3ncc4c(n3)N(C)C(c3cc(F)c(F)c(F)c3)CO4)cc2F)ccn1 (single isomer, unassigned; (-)) [Example 36B]",1250 nM
10,"Cc1cc(-c2ccc(Nc3ncc4c(n3)N(C)C(c3cc(F)c(F)c(F)c3)CO4)cc2)ccn1 (single isomer, unassigned; (-)) [Example 37B]",1540 nM
11,"COc1cc(Nc2ncc3c(n2)N(C)C(c2cc(F)c(F)c(F)c2)CO3)ccc1-c1ccnc(C)c1 (single isomer, unassigned; (-)) [Example 39B]",984 nM
12,"COc1cc(Nc2ncc3c(n2)N(C)C(c2cc(F)c(F)c(F)c2)CO3)ccc1-n1cnc(C)c1 (single isomer, unassigned; (-)) [Example 40A]",279 nM
13,"Cc1cc(-c2ccc(Nc3ncc4c(n3)N(C)C(c3cc(F)cc(F)c3)CO4)cc2F)ccn1 (single isomer, unassigned; (-)) [Example 41B]",1260 nM
14,"COc1cc(Nc2ncc3c(n2)N(C)C(c2cc(F)cc(F)c2)CO3)ccc1-c1ccnc(C)c1 (single isomer, unassigned; (-)) [Example 42B]",801 nM
15,"Cc1cn(-c2ccc(Nc3ncc4c(n3)N(C)C(c3ccccc3C)CO4)cc2)cn1 (single isomer, unassigned; (-)) [Example 43B]",> 300 nM
16,"COc1cc(Nc2ncc3c(n2)N(C)C(Cc2ccccc2)CO3)ccc1-n1cnc(C)c1 (single isomer, unassigned; (-)) [Example 47B]",65 nM
17,"COc1cc(Nc2ncc3c(n2)N(C)C(c2ccc(F)cc2F)CO3)ccc1-n1cnc(C)c1 (single isomer, unassigned; (-)) [Example 48A]",328 nM
18,"COc1cc(Nc2ncc3c(n2)N(C)C(c2ccc(F)cc2)CO3)ccc1-n1cnc(C)c1 (single isomer, unassigned; (-)) [Example 49A]",191 nM
19,"COc1cc(Nc2ncc3c(n2)N(C)C(c2ccccc2Cl)CO3)ccc1-n1cnc(C)c1 (single isomer, unassigned; (-)) [Example 51A]",28 nM
20,"COc1cc(Nc2ncc3c(n2)N(C)C(c2ccccc2C(F)(F)F)CO3)ccc1-n1cnc(C)c1 (single isomer, unassigned; (-)) [Example 55A]",102 nM

row,Structure (SMILES),IC50
1,"Cc1cc(-c2ccc(Nc3ncc4c(n3)N(C)C(c3ccc(F)cc3)CO4)cc2F)ccn1 (single isomer, unassigned; (-)) [Example 56B]",3460 nM
2,"Cc1cc(-c2ccc(Nc3ncc4c(n3)N(C)C(Cc3ccccc3)CO4)cc2F)ccn1 (single isomer, unassigned; (-)) [Example 57B]",880 nM
3,"Cc1cn(-c2ccc(Nc3ncc4c(n3)N(C)C(c3ccc(F)cc3)CO4)cc2F)cn1 (single isomer, unassigned; (-)) [Example 58B]",1950 nM
4,"Cc1cn(-c2ccc(Nc3ncc4c(n3)N(C)C(Cc3ccccc3)CO4)cc2F)cn1 (single isomer, unassigned; (-)) [Example 59B]",452 nM
5,"COc1cc(Nc2ncc3c(n2)N(C)C(c2ccccc2OC(F)(F)F)CO3)ccc1-n1cnc(C)c1 (single isomer, unassigned; (-)) [Example 60A]",92 nM
6,"COc1cc(Nc2ncc3c(n2)N(C)C(c2ccc(F)cc2)CO3)ccc1-c1ccnc(C)c1 (single isomer, unassigned; (-)) [Example 61A]",1010 nM
7,"COc1cc(Nc2ncc3c(n2)N(C)C(c2ccccc2OC(F)(F)F)CO3)ccc1-c1ccnc(C)c1 (single isomer, unassigned; (-)) [Example 62A]",339 nM
8,"COc1cc(Nc2ncc3c(n2)N(C)C(c2ccc(F)cc2F)CO3)ccc1-c1ccnc(C)c1 (single isomer, unassigned; (-)) [Example 63A]",543 nM
9,"Cc1cn(-c2ccc(Nc3ncc4c(n3)N(C)C(c3ccccc3OC(F)(F)F)CO4)cc2F)cn1 (single isomer, unassigned; (-)) [Example 64B]",741 nM
10,"Cc1cc(-c2ccc(Nc3ncc4c(n3)N(C)C(c3ccc(F)cc3F)CO4)cc2F)ccn1 (single isomer, unassigned; (-)) [Example 66B]",1100 nM
11,"Cc1cn(-c2ccc(Nc3ncc4c(n3)N(C)C(c3ccccc3Cl)CO4)cc2F)cn1 (single isomer, unassigned; (-)) [Example 67B]",643 nM
12,"COc1cc(Nc2ncc3c(n2)N(C)C(Cc2ccccc2)CO3)ccc1-c1ccnc(C)c1 (single isomer, unassigned; (-)) [Example 68B]",229 nM
13,"Cc1cn(-c2ccc(Nc3ncc4c(n3)N(C)C(c3ccc(F)cc3F)CO4)cc2F)cn1 (single isomer, unassigned; (-)) [Example 69B]",> 3000 nM
14,"COc1cc(Nc2ncc3c(n2)N(C)C(c2ccccc2C(F)(F)F)CO3)ccc1-c1ccnc(C)c1 (single isomer, unassigned; (-)) [Example 70A]",339 nM
15,"Cc1cn(-c2ccc(Nc3ncc4c(n3)N(C)C(c3ccccc3C(F)(F)F)CO4)cc2F)cn1 (single isomer, unassigned; (-)) [Example 84B]",421 nM
16,"COc1cc(Nc2ncc3c(n2)N(C)C(c2ccccc2Cl)CO3)ccc1-c1ccnc(C)c1 (single isomer, unassigned; (-)) [Example 85A]",292 nM
17,"COc1cc(Nc2ncc3c(n2)N(C)C(c2cc(C(F)(F)F)ccc2Cl)CO3)ccc1-n1cnc(C)c1 (single isomer, unassigned; (-)) [Example 88B]",286 nM
18,"COc1cc(Nc2ncc3c(n2)N(C)C(c2ccc(F)cc2Cl)CO3)ccc1-n1cnc(C)c1 (single isomer, unassigned; (-)) [Example 93A]",189 nM
19,"COc1cc(Nc2ncc3c(n2)N(C)C(c2ccc(F)cc2C(F)(F)F)CO3)ccc1-n1cnc(C)c1 (single isomer, unassigned; (-)) [Example 94A]",78 nM
20,"COc1cc(Nc2ncc3c(n2)N(C)C(c2ccc(Cl)cc2Cl)CO3)ccc1-n1cnc(C)c1 (single isomer, unassigned; (-)) [Example 95A]",116 nM
